Measured values from patent US20220119354A1, “DIAMINO-SUBSTITUTED PYRIDINES AND PYRIMIDINES AS HERBICIDES” (FMC Corporation, priority 2019, published 2022).

Assays:
Assay type in all cases: in vivo
[1] = test system: barnyardgrass (Echinochloa crus-galli); experiment: Test A preemergence, barnyardgrass; conditions: 0 to 100 scale
How it was run: (§1)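 Greenhouse pot test, loam/sand soil. Pre: directed soil spray at planting; post: foliar spray at 1–2 leaf stage (2–10 cm). Chemical in non-phytotoxic solvent + surfactant. Visual rating ~10 d, 0 = no effect, 100 = complete control.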

kochia (Kochia scoparia) [2] = experiment: Test A preemergence, kochia; conditions: 0 to 100 scale
How it was run: as §1

[3] = test system: ragweed (common ragweed, Ambrosia elatior); experiment: Test A preemergence, ragweed; conditions: 0 to 100 scale
How it was run: as §1

[4] = test system: ryegrass, Italian (Lolium multiflorum); experiment: Test A preemergence, Italian ryegrass; conditions: 0 to 100 scale
How it was run: as §1

[5] = test system: foxtail, giant (Setaria faberii); experiment: Test A preemergence, giant foxtail; conditions: 0 to 100 scale
How it was run: as §1

[6] = test system: pigweed (Amaranthus retroflexus); experiment: Test A preemergence, pigweed; conditions: 0 to 100 scale
How it was run: as §1

[7] = test system: barnyardgrass (Echinochloa crus-galli); experiment: Test A postemergence, barnyardgrass; conditions: 0 to 100 scale
How it was run: as §1

kochia (Kochia scoparia) [8] = experiment: Test A postemergence, kochia; conditions: 0 to 100 scale
How it was run: as §1

[9] = test system: ragweed (common ragweed, Ambrosia elatior); experiment: Test A postemergence, ragweed; conditions: 0 to 100 scale
How it was run: as §1

[10] = test system: ryegrass, Italian (Lolium multiflorum); experiment: Test A postemergence, Italian ryegrass; conditions: 0 to 100 scale
How it was run: as §1

[11] = test system: foxtail, giant (Setaria faberii); experiment: Test A postemergence, giant foxtail; conditions: 0 to 100 scale
How it was run: as §1

[12] = test system: pigweed (Amaranthus retroflexus); experiment: Test A postemergence, pigweed; conditions: 0 to 100 scale
How it was run: as §1

[13] = test system: wheat (Triticum aestivum); experiment: Test A postemergence, wheat; conditions: 0 to 100 scale
How it was run: as §1

corn (Zea mays) = experiment: Test A postemergence, corn; conditions: 0 to 100 scale
How it was run: as §1

[14] = test system: blackgrass (Alopecurus myosuroides); experiment: Test A postemergence, blackgrass; conditions: 0 to 100 scale
How it was run: as §1

[15] = test system: galium (catchweed bedstraw, Galium aparine); experiment: Test A postemergence, galium; conditions: 0 to 100 scale
How it was run: as §1

rice (Oryza sativa) = experiment: Test B flooded paddy test, rice; conditions: Flood, 250 g ai/ha, applied to paddy water, 2-leaf stage, visual evaluation after 13 to 15 d
How it was run: (§2)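 Rating: 0 = no effect, 100 = complete control, visual, relative to untreated plants. Conditions: 2-leaf stage, 3 cm flood kept constant, compound put directly into water, 13–15 d greenhouse.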

[16] = test system: sedge, umbrella (small-flower umbrella sedge, Cyperus difformis); experiment: Test B flooded paddy test, umbrella sedge; conditions: Flood, 250 g ai/ha, applied to paddy water, 2-leaf stage, visual evaluation after 13 to 15 d
How it was run: as §2

[17] = test system: ducksalad (Heteranthera limosa); experiment: Test B flooded paddy test, ducksalad; conditions: Flood, 250 g ai/ha, applied to paddy water, 2-leaf stage, visual evaluation after 13 to 15 d
How it was run: as §2

[18] = test system: barnyardgrass (Echinochloa crus-galli); experiment: Test B flooded paddy test, barnyardgrass; conditions: Flood, 250 g ai/ha, applied to paddy water, 2-leaf stage, visual evaluation after 13 to 15 d
How it was run: as §2

[19] = 125 g ai/ha, 0 is no effect, 100 is complete control

Row | SMILES | Plant response rating, Barnyardgrass ([1]; 500 g ai/ha) | Plant response rating, Kochia (kochia (Kochia scoparia) [2]; 500 g ai/ha) | Plant response rating, Ragweed ([3]; 500 g ai/ha) | Plant response rating, Ryegrass, Italian ([4]; 500 g ai/ha) | Plant response rating, Foxtail, Giant ([5]; 500 g ai/ha) | Plant response rating, Pigweed ([6]; 500 g ai/ha) | Plant response rating, Barnyardgrass ([7]; 125 g ai/ha) | Plant response rating, Barnyardgrass ([7]; 500 g ai/ha) | Plant response rating, Kochia (kochia (Kochia scoparia) [8]; 125 g ai/ha) | Plant response rating, Kochia (kochia (Kochia scoparia) [8]; 500 g ai/ha) | Plant response rating, Ragweed ([9]; 125 g ai/ha) | Plant response rating, Ragweed ([9]; 500 g ai/ha) | Plant response rating, Ryegrass, Italian ([10]; 125 g ai/ha) | Plant response rating, Ryegrass, Italian ([10]; 500 g ai/ha) | Plant response rating, Foxtail, Giant ([11]; 125 g ai/ha) | Plant response rating, Foxtail, Giant ([11]; 500 g ai/ha) | Plant response rating, Pigweed ([12]; 125 g ai/ha) | Plant response rating, Pigweed ([12]; 500 g ai/ha) | Plant response rating, Wheat ([13]; 125 g ai/ha) | Plant response rating, Wheat ([13]; 500 g ai/ha) | other results
1 | C[C@@H](Nc1ncc(C(F)(F)F)c(N)n1)c1cccc2ccccc12 [Compound 3] | 100 | 100 | 100 | 90 | 90 | 100 | 20 | 80 | 30 | 90 | 30 | 90 | 0 | 0 | 0 | 40 | 90 | 100 | 20 | 0 | Plant response rating, Barnyardgrass ([1]; 125 g ai/ha): 10; Plant response rating, Kochia (kochia (Kochia scoparia) [2]; 125 g ai/ha): 30; Plant response rating, Ragweed ([3]; 125 g ai/ha): 100; Plant response rating, Ryegrass, Italian ([4]; 125 g ai/ha): 20; Plant response rating, Foxtail, Giant ([5]; 125 g ai/ha): 10; Plant response rating, Pigweed ([6]; 125 g ai/ha): 100; Plant response rating, Corn (corn (Zea mays); 125 g ai/ha): 0; Plant response rating, Corn (corn (Zea mays); 500 g ai/ha): 10; Plant response rating, Blackgrass ([14]; 125 g ai/ha): 0; Plant response rating, Blackgrass ([14]; 500 g ai/ha): 30; Plant response rating, Galium ([15]; 125 g ai/ha): 30; Plant response rating, Galium ([15]; 500 g ai/ha): 90; Plant response rating, Rice (0 to 100 scale, 0 is no effect, 100 is complete control) (rice (Oryza sativa)): 0; Plant response rating, Sedge, Umbrella (0 to 100 scale, 0 is no effect, 100 is complete control) [16]: 65; Plant response rating, Ducksalad (0 to 100 scale, 0 is no effect, 100 is complete control) [17]: 30; Plant response rating, Barnyardgrass (0 to 100 scale, 0 is no effect, 100 is complete control) [18]: 0
2 | CC(COc1cc(Cl)cc(Cl)c1)Nc1ncc(C(F)(F)F)c(N)n1 (stereo not drawn) [Compound 35] | 0 | 40 | 0 | 0 | 0 | 0 | 20 | 0 | 0 | 20 | 0 | 0 | 40 | 30 | 0 | 0 | 0 | 50 | 0 | 0 | Barnyardgrass plant response rating [1, 19]: 0; Kochia plant response rating (kochia (Kochia scoparia) [2]; [19]): 0; Ragweed plant response rating [3, 19]: 0; Ryegrass, Italian plant response rating [4, 19]: 0; Foxtail, Giant plant response rating [5, 19]: 0; Pigweed plant response rating [6, 19]: 0; Plant response rating, Corn (corn (Zea mays); 125 g ai/ha): 0; Plant response rating, Corn (corn (Zea mays); 500 g ai/ha): 0; Plant response rating, Blackgrass ([14]; 125 g ai/ha): 0; Plant response rating, Blackgrass ([14]; 500 g ai/ha): 0; Plant response rating, Galium ([15]; 125 g ai/ha): 0; Plant response rating, Galium ([15]; 500 g ai/ha): 60; Plant response rating, Rice (0 to 100 scale, 0 is no effect, 100 is complete control) (rice (Oryza sativa)): 0; Plant response rating, Sedge, Umbrella (0 to 100 scale, 0 is no effect, 100 is complete control) [16]: 0; Plant response rating, Ducksalad (0 to 100 scale, 0 is no effect, 100 is complete control) [17]: 0; Plant response rating, Barnyardgrass (0 to 100 scale, 0 is no effect, 100 is complete control) [18]: 0
3 | Nc1nc(NC(c2cc3ccccc3o2)C2CC2)ncc1C(F)(F)F (racemic) [Compound 18] | 80 | 60 | 100 | 50 | 90 | 100 | 10 | 80 | 50 | 90 | 20 | 70 | 0 | 30 | 0 | 70 | 90 | 100 | 20 | 10 | Plant response rating, Barnyardgrass ([1]; 125 g ai/ha): 50; Plant response rating, Kochia (kochia (Kochia scoparia) [2]; 125 g ai/ha): 0; Plant response rating, Ragweed ([3]; 125 g ai/ha): 80; Plant response rating, Ryegrass, Italian ([4]; 125 g ai/ha): 50; Plant response rating, Foxtail, Giant ([5]; 125 g ai/ha): 90; Plant response rating, Pigweed ([6]; 125 g ai/ha): 90; Plant response rating, Corn (corn (Zea mays); 125 g ai/ha): 0; Plant response rating, Corn (corn (Zea mays); 500 g ai/ha): 0; Plant response rating, Blackgrass ([14]; 125 g ai/ha): 20; Plant response rating, Blackgrass ([14]; 500 g ai/ha): 80; Plant response rating, Galium ([15]; 125 g ai/ha): 40; Plant response rating, Galium ([15]; 500 g ai/ha): 90; Plant response rating, Rice (0 to 100 scale, 0 is no effect, 100 is complete control) (rice (Oryza sativa)): 0; Plant response rating, Sedge, Umbrella (0 to 100 scale, 0 is no effect, 100 is complete control) [16]: 98; Plant response rating, Ducksalad (0 to 100 scale, 0 is no effect, 100 is complete control) [17]: 85; Plant response rating, Barnyardgrass (0 to 100 scale, 0 is no effect, 100 is complete control) [18]: 0
